Assay results reported in the NIST ThermoML archive (doi:10.1016/j.jct.2019.05.023).

Assay: xn = mol fraction of the nth substance listed
Details: 101.3 kPa, Liquid; for speed of sound: Frequency=3 MHz, Single path-length method; for mass density: Vibrating tube method

CCOCCO [2-ethoxyethan-1-ol] + CCn1cc[n+](C)c1.O=S(=O)([O-])C(F)(F)F
Details | mass density, 298.15 K [kg/m3] | mass density, 303.15 K [kg/m3] | mass density, 308.15 K [kg/m3] | mass density, 313.15 K [kg/m3] | mass density, 318.15 K [kg/m3] | speed of sound, 298.15 K [m/s] | speed of sound, 303.15 K [m/s] | speed of sound, 308.15 K [m/s] | speed of sound, 313.15 K [m/s] | speed of sound, 318.15 K [m/s]
x2 = 0 | 926 | 921 | 917 | 912 | 907 | 1304 | 1287 | 1270 | 1252 | 1234
x2 = 0.067 | 981 | 976 | 971 | 967 | 962 | 1321 | 1305 | 1289 | 1272 | 1256
x2 = 0.133 | 1029 | 1024 | 1020 | 1015 | 1011 | 1333 | 1318 | 1302 | 1286 | 1271
x2 = 0.192 | 1066 | 1062 | 1058 | 1053 | 1049 | 1344 | 1329 | 1314 | 1299 | 1283
x2 = 0.268 | 1112 | 1107 | 1103 | 1099 | 1094 | 1356 | 1342 | 1328 | 1313 | 1299
x2 = 0.35 | 1157 | 1152 | 1148 | 1144 | 1139 | 1369 | 1355 | 1342 | 1328 | 1315
x2 = 0.428 | 1196 | 1191 | 1187 | 1183 | 1178 | 1380 | 1367 | 1354 | 1341 | 1328
x2 = 0.54 | 1245 | 1241 | 1237 | 1233 | 1228 | 1395 | 1383 | 1370 | 1358 | 1346
x2 = 0.609 | 1272 | 1268 | 1264 | 1260 | 1255 | 1403 | 1391 | 1379 | 1368 | 1356
x2 = 0.674 | 1295 | 1291 | 1287 | 1283 | 1278 | 1411 | 1399 | 1387 | 1376 | 1364
x2 = 0.734 | 1314 | 1310 | 1306 | 1302 | 1297 | 1417 | 1406 | 1394 | 1383 | 1372
x2 = 0.799 | 1332 | 1328 | 1324 | 1320 | 1315 | 1424 | 1412 | 1401 | 1390 | 1379
x2 = 0.884 | 1354 | 1350 | 1346 | 1342 | 1337 | 1431 | 1420 | 1409 | 1398 | 1387
x2 = 0.951 | 1371 | 1367 | 1363 | 1359 | 1354 | 1437 | 1425 | 1414 | 1403 | 1392

CCCOCCO [2-propoxyethanol] + CCn1cc[n+](C)c1.O=S(=O)([O-])C(F)(F)F
Details | mass density, 298.15 K [kg/m3] | mass density, 303.15 K [kg/m3] | mass density, 308.15 K [kg/m3] | mass density, 313.15 K [kg/m3] | mass density, 318.15 K [kg/m3] | speed of sound, 298.15 K [m/s] | speed of sound, 303.15 K [m/s] | speed of sound, 308.15 K [m/s] | speed of sound, 313.15 K [m/s] | speed of sound, 318.15 K [m/s]
x2 = 0 | 908 | 903 | 899 | 895 | 890 | 1301 | 1283 | 1266 | 1248 | 1231
x2 = 0.051 | 945 | 940 | 936 | 931 | 927 | 1308 | 1292 | 1275 | 1258 | 1241
x2 = 0.104 | 981 | 976 | 972 | 968 | 963 | 1317 | 1300 | 1284 | 1268 | 1252
x2 = 0.199 | 1042 | 1037 | 1033 | 1029 | 1024 | 1331 | 1316 | 1301 | 1286 | 1271
x2 = 0.241 | 1067 | 1063 | 1059 | 1054 | 1050 | 1338 | 1323 | 1308 | 1294 | 1279
x2 = 0.296 | 1098 | 1094 | 1089 | 1085 | 1081 | 1346 | 1332 | 1318 | 1304 | 1289
x2 = 0.416 | 1161 | 1157 | 1153 | 1149 | 1145 | 1364 | 1351 | 1338 | 1324 | 1311
x2 = 0.506 | 1204 | 1200 | 1196 | 1192 | 1187 | 1377 | 1364 | 1352 | 1339 | 1327
x2 = 0.606 | 1247 | 1243 | 1239 | 1235 | 1231 | 1391 | 1379 | 1367 | 1355 | 1343
x2 = 0.698 | 1284 | 1280 | 1276 | 1272 | 1268 | 1404 | 1392 | 1381 | 1369 | 1357
x2 = 0.808 | 1324 | 1320 | 1316 | 1311 | 1307 | 1419 | 1408 | 1396 | 1385 | 1374
x2 = 0.845 | 1336 | 1332 | 1328 | 1324 | 1320 | 1424 | 1413 | 1402 | 1390 | 1379
x2 = 0.898 | 1353 | 1349 | 1344 | 1340 | 1336 | 1431 | 1420 | 1409 | 1398 | 1386
x2 = 0.953 | 1369 | 1365 | 1361 | 1357 | 1353 | 1438 | 1427 | 1416 | 1405 | 1394
